Experimental data taken from ChEMBL document CHEMBL1129865, “Synthesis, evaluation, and crystallographic analysis of L-371,912: A potent and selective active-site thrombin inhibitor” (Bioorg Med Chem Lett, 1997).

Columns and labels:
Rattus norvegicus [1] = assay: Efficacy by observing the number of occulation in rat when a dose of 6 ug/Kg/min iv. administration; 1/6; type: functional
[2] = Concentration required to double the activated partial thromboplastin time in human plasma was determined; type: functional
Rattus norvegicus [3] = assay: Efficacy by observing the number of occulation in rat when a dose of 6 ug/Kg/min iv. administration; 3/6; type: functional
Serine protease 1 = molecular target: T1, Serine protease 1 (Bos taurus, UniProt P00760); assay: In vitro inhibition against bovine trypsin was determined
T1 sequence (P00760 whole entry): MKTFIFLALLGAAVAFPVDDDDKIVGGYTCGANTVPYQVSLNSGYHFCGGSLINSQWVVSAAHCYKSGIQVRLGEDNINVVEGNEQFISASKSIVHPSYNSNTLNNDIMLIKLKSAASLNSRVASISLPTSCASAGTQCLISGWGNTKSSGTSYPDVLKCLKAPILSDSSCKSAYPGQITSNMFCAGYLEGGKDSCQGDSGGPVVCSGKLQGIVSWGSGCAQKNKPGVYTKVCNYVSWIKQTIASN

Ki (Serine protease 1) [nM]	Structure (SMILES)	Occulations (Rattus norvegicus [1])	APPTT [2] [µM]	Occulations (Rattus norvegicus [3])
–	CN[C@H](Cc1ccccc1)C(=O)N1CCC[C@H]1C(=O)NC[C@H]1CC[C@H](N)CC1	1	1.1	–
1150	CNC(=O)C(=O)[C@@H](NC(=O)[C@@H]1CCCN1C(=O)[C@@H](Cc1ccccc1)NC)[C@H]1CC[C@H](N)CC1	–	2	3
